Consider six molecules from patent US9012433B2, “Substituted tetracycline compounds” (Paratek Pharmaceuticals, Inc., priority 2006, dated 2015).

The term MIC denotes the lowest concentration found to suppress growth. As a reminder, the IC50 is the point on the concentration scale where inhibition reaches its midpoint. By half-life is commonly meant the time in which the quantity being followed falls by half.

Series [1] deals with B. thetaiotaomicron ATCC 29741. Briefly: Antibacterial MIC, CLSI broth microdilution. It counts as cell-based. As to conditions: Bacteroides thetaiotaomicron. On the technique in general: Broth dilution looks for growth in wells or tubes with falling amounts of substance.
The subject of a further series is E. coli ATCC 25922. The series can be described thus: Antibacterial MIC, CLSI broth microdilution. The format is cell-based. As to conditions: Escherichia coli, ATCC25922; 35° C., 18-24 hours. The method in brief: (§1)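 CLSI broth microdilution in cation-supplemented Mueller Hinton broth, inoculum 1×10^5 cfu from 0.5 McFarland cultures diluted 1:200. Incubated 35° C in ambient air for 18-24 hours. Growth read spectrophotometrically and checked manually; MIC (μg/mL) is the lowest compound dilution inhibiting growth.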

The test system of another series is E. coli MG 1655. Briefly: Antibacterial MIC, CLSI broth microdilution. As to conditions: Escherichia coli, MG1655; 35° C., 18-24 hours. The format is cell-based. The method in brief:
as §1

For a further series, the system named is P. acnes ATCC 11827. Briefly: Antibacterial MIC, CLSI broth microdilution. It counts as cell-based. As to conditions: Cutibacterium acnes, ATCC11827; 35° C., 18-24 hours. In short, it runs like this: as §1
In the next series the test system is P. acnes ATCC 6919. Briefly: Antibacterial MIC, CLSI broth microdilution. The format is cell-based. As to conditions: Cutibacterium acnes, ATCC6919; 35° C., 18-24 hours. The method in brief:
as §1

Series [2] relates to S. aureus RN450. Briefly: Antibacterial MIC, CLSI broth microdilution. The format is cell-based. As to conditions: Staphylococcus aureus, RN450; 35° C., 18-24 hours. The method in brief: as §1
For series [3], the system named is S. pneumoniae 157E - Strep. Briefly: Antibacterial MIC, CLSI broth microdilution. It counts as cell-based. As to conditions: Streptococcus pneumoniae, 157ESTREP; 35° C., 18-24 hours; lysed horse blood. In short, it runs like this: as §1
The next series in a line: in vitro. The format is cell-based. In short, it runs like this: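 COS-1 or CHO cells exposed to serial dilutions of test compound for 24 hours. Metabolic activity then read with resazurin (Alamar Blue): 2 hours incubation plus 30 minutes dark at room temperature, fluorescence ex 535/em 590 nm, treated versus control.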
For series [4], the system named is S. aureus RN450. Briefly: In vivo anti-bacterial activity, S. aureus model. As to conditions: mice, 24 hours; for ED50 / responders at 5 mg/kg: Staphylococcus aureus, sc; for ED50: lethal IP S. aureus RN450, subcutaneous, read-out: PD50 (dose that protects 50% of the animals); for responders at 5 mg/kg: read-out: Percent Survival. The protocol:
Groups of five mice were injected intraperitoneally with a lethal dose of S. aureus RN450 in a medium of mucin. Mice were evaluated at 24 hours to determine survival. […] In some instances, a dose response study was performed with the compound such that a PD50 (a dose of compound that protects 50% of the animals) could be calculated.

Series [5] can be described thus: Half-life of oxidation, sodium periodate accelerated oxidation. It counts as physicochemical. As to conditions: buffer, pH 11. The protocol:
Not to be limited by theory, it is believed that the tissue staining may be caused oxidative instability. The tetracycline compounds were subjected to accelerated oxidation in a continuous-flow microreactor using a 15 molar excess of sodium periodate at pH 11 and 22° C. Aliquots of each reaction mixture were quenched at various time points with ascorbic acid and the disappearance of each compound was determined by RP-HPLC. Pseudo first-order rate constants and t1/2 values were obtained from the plots of log (Ao-At/Ao) versus time, where Ao is the HPLC area determined for each compound at time=0 and At is the HPLC area at time=t.

Setting [6] is: ATCC29741, 35° C., 18-24 hours, read-out: MIC B. thetaiotaomicron ATCC 29741.
Setting [7] is: ATCC29741, read-out: MIC B. thetaiotaomicron ATCC 29741.
The mark [8] stands for this setting: lethal IP S. aureus RN450, single subcutaneous dose 5 mg/kg.

In brackets after ≈: the same amount, converted by molar mass. Where two headings read alike, the source gives them in different places. Some results are limits rather than exact numbers.

On to `CN(C)[C@@H]1C(O)=C(C(N)=O)C(=O)[C@@]2(O)C(O)=C3C(=O)c4c(O)ccc(CNOCC(F)(F)F)c4C[C@H]3C[C@@H]12` [DZ], for which the MIC in series [1] (setting [6]) is under 4 µg/mL; in the series with E. coli ATCC 25922, 4 to 8 µg/mL (≈ 7.39 to 14.8 µM); against E. coli MG 1655 it was over 8 µg/mL; against P. acnes ATCC 11827, under 4 µg/mL; against P. acnes ATCC 6919, under 4 µg/mL; in the series with S. aureus RN450 [2] it was under 4 µg/mL. Also, the MIC in [3] was under 4 µg/mL. For the same molecule, the IC50 at 24 h in the series “in vitro” (African green monkey) and in “in vitro” (Chinese hamster) was under 35 µg/mL in each case. For the same molecule, the ED50 with S. aureus RN450 [4] is 1.11 mg/kg.

For `C[C@H]1c2cccc(O)c2C(=O)C2=C(O)[C@]3(O)C(=O)C(C(N)=O)=C(O)[C@@H](N(C)C)[C@@H]3[C@@H](O)[C@@H]21` [Doxycycline, reference compound], the MIC in series [1] (setting [7]) was 4 to 8 µg/mL (≈ 9 to 18 µM); in the series with E. coli ATCC 25922, under 4 µg/mL; against E. coli MG 1655, under 4 µg/mL; in the series with P. acnes ATCC 11827, under 4 µg/mL; in the series with P. acnes ATCC 6919 it was under 4 µg/mL; in the series on S. aureus RN450 [2] it was under 4 µg/mL. This molecule also came in with an MIC in series [3] of under 4 µg/mL. In addition, the concentration for half-maximal inhibition (IC50) at 24 h in “in vitro” (African green monkey) and in the series “in vitro” (Chinese hamster) was over 75 µg/mL each time. Besides, the responders at 5 mg/kg in the series with S. aureus RN450 [4] (setting [8]) came to 100%. Besides, in the series on S. aureus RN450 [4], the ED50 was found to be 0.13 mg/kg. Besides, the “Percent Survival” value with S. aureus RN450 [4] (lethal IP S. aureus RN450, single subcutaneous dose 5 mg/kg, 5 mg/kg) is reported as 100 (5/5) Percent.

Turning to `CN(C)c1ccc(O)c2c1C[C@H]1C[C@H]3[C@H](N(C)C)C(O)=C(C(N)=O)C(=O)[C@@]3(O)C(O)=C1C2=O` [Minocycline, reference compound], the MIC was 4 to 8 µg/mL (≈ 8.74 to 17.5 µM) in series [1] (setting [7]); under 4 µg/mL in the series with E. coli ATCC 25922; under 4 µg/mL with E. coli MG 1655; under 4 µg/mL against P. acnes ATCC 11827; under 4 µg/mL in the series with P. acnes ATCC 6919; under 4 µg/mL in the series with S. aureus RN450 [2]. Besides, the MIC in series [3] is under 4 µg/mL. In addition, the IC50 at 24 h in the series “in vitro” (African green monkey) and in “in vitro” (Chinese hamster) was over 75 µg/mL in each case. The half-life in series [5] was 8.2 s.

On to `CON(C)Cc1ccc(O)c2c1C[C@H]1C[C@H]3[C@H](N(C)C)C(O)=C(C(N)=O)C(=O)[C@@]3(O)C(O)=C1C2=O` [P], for which the MIC in series [1] (setting [7]) is 4 to 8 µg/mL (≈ 8.2 to 16.4 µM); against E. coli ATCC 25922, 4 to 8 µg/mL (≈ 8.2 to 16.4 µM); against E. coli MG 1655, 4 to 8 µg/mL (≈ 8.2 to 16.4 µM); with P. acnes ATCC 11827, under 4 µg/mL; in the series on P. acnes ATCC 6919, under 4 µg/mL; with S. aureus RN450 [2], under 4 µg/mL. This molecule also gave an MIC in [3] of under 4 µg/mL. For the same molecule, the IC50 at 24 h in “in vitro” (African green monkey) and in “in vitro” (Chinese hamster) was over 75 µg/mL each time. Besides, in the series on S. aureus RN450 [4] (setting [8]), the responders at 5 mg/kg amounted to 100%. The ED50 with S. aureus RN450 [4] came out at 0.13 mg/kg.

As for `C/C(=N\OC(C)(C)C)c1cc(N)c(O)c2c1C[C@H]1C[C@H]3[C@H](N(C)C)C(O)=C(C(N)=O)C(=O)[C@@]3(O)C(O)=C1C2=O` [Q, (4S,4aS,5aR,12aS)-9-Amino-7-(1-tert-butoxyimino-ethyl)-4-dimethylamino-3,10,12,12a-tetrahydroxy-1,11-dioxo-1,4,4a,5,5a,6,11,12a-octahydro-naphthacene-2-carboxylic acid amide], the minimal inhibitory concentration (MIC) in series [1] (setting [6]) is 4 to 8 µg/mL (≈ 7.37 to 14.7 µM); in the series on E. coli ATCC 25922, 4 to 8 µg/mL (≈ 7.37 to 14.7 µM); in the series on E. coli MG 1655, 4 to 8 µg/mL (≈ 7.37 to 14.7 µM); in the series with P. acnes ATCC 11827, under 4 µg/mL; against P. acnes ATCC 6919, under 4 µg/mL; in the series with S. aureus RN450 [2] it was under 4 µg/mL. The MIC in [3] was under 4 µg/mL. Besides, the IC50 at 24 h in the series “in vitro” (African green monkey) and in “in vitro” (Chinese hamster) was under 35 µg/mL each time. In the series with S. aureus RN450 [4] (setting [8]), the responders at 5 mg/kg is 100%. For the same molecule, in the series with S. aureus RN450 [4], the ED50 stood at 0.45 mg/kg.

With `CO/N=C/c1cc(N(C)C)c2c(c1O)C(=O)C1=C(O)[C@]3(O)C(=O)C(C(N)=O)=C(O)[C@@H](N(C)C)[C@@H]3C[C@@H]1C2` [V, (4S,4aS,5aR,12aS)-4,7-Bis-dimethylamino-3,10,12,12a-tetrahydroxy-9-(methoxyimino-methyl)-1,11-dioxo-1,4,4a,5,5a,6,11,12a-octahydro-naphthacene-2-carboxylic acid amide], the MIC in [1] (setting [6]) was 4 to 8 µg/mL (≈ 7.77 to 15.5 µM); in the series with E. coli ATCC 25922 it was over 8 µg/mL; against E. coli MG 1655, over 8 µg/mL; in the series with P. acnes ATCC 11827, under 4 µg/mL; in the series with P. acnes ATCC 6919, under 4 µg/mL; against S. aureus RN450 [2], under 4 µg/mL. This molecule also came in with an MIC in series [3] of under 4 µg/mL. The IC50 at 24 h in “in vitro” (African green monkey) and in the series “in vitro” (Chinese hamster) was under 35 µg/mL in each case. The ED50 in the series with S. aureus RN450 [4] worked out at 1.4 mg/kg.
